According to patent publication US12454507B2, “Compounds having a fungicidal activity, their agronomic compositions and use thereof for the control of phytopathogenic fungi” (ISAGRO S.p.A., priority 2019, dated 2025):

Columns and labels:
Sclerotinia sclerotiorum = experiment: Antifungal activity in vitro (growth inhibition, 96-well absorbance); format: cell-based; conditions: 20° C., 72 hours (96 or 120 when necessary)
Parastagonospora nodorum = experiment: as above; format: cell-based; conditions: 20° C., 72 hours (96 or 120 when necessary)
Zymoseptoria tritici = experiment: as above; format: cell-based; conditions: 20° C., 72 hours (96 or 120 when necessary)
Magnaporthe oryzae = format: cell-based; conditions: for In vitro antifungal activity, 50% effective doses (EC50): Magnaporthe oryzae, 20° C., 72 hours (96 or 120 when necessary)
Phytophthora infestans = format: cell-based; conditions: for In vitro antifungal activity, 50% effective doses (EC50): Phytophthora infestans, 20° C., 72 hours (96 or 120 when necessary)
Pythium ultimum = format: cell-based; conditions: for In vitro antifungal activity, 50% effective doses (EC50): Pythium ultimum, 20° C., 72 hours (96 or 120 when necessary)
Phakopsora pachyrhizi = experiment: Preventive fungicidal activity (5 days) against Phakopsora pachyrhizi on soya; format: in vivo; conditions: for P5 Activity: soya Zora, inoculation 5 days after treatment; for control of the pathogen: dose of 125 ppm
Plasmopara viticola = experiment: Preventive activity (7 days) against Plasmopara viticola on vines; format: in vivo; conditions: leaf spray, inoculation 7 days after treatment, vine Merlot, reduction of diseased leaf area vs untreated (100=complete effectiveness)
Description: Leaves of vine plants, Merlot variety, grown in pots, in a conditioned environment (20±1° C., 70% R.H.) were treated by spraying both sides of the leaves with the products in question. 7 days after the treatment, the plants were inoculated with an aqueous suspension of Plasmopara viticola spores (200,000 spores/cc) by spraying both sides of the leaves with a compressed air gun. After remaining 24 hours in a humidity-saturated environment, at 21° C., the plants were transferred for the incubation period (7 days) in a conditioned environment with 70% R.H. and at 24° C. After this period of time, the external symptoms of the pathogen appeared and it was therefore possible to evaluate the intensity of the infection.

Puccinia Recondita = experiment: Preventive fungicidal activity (5 days) against Puccinia recondita on wheat; format: in vivo; conditions: wheat Salgemma, inoculation 5 days after treatment; for P5 Activity NT: parts developed during the test (NT); for P5 Activity T: parts treated directly (T)
Description: Leaves of wheat plants of the […] variety, grown in pots in a conditioned environment at 20° C. and 70% of Relative Humidity (RH), were treated by spraying both sides of the leaves with the compound under examination dispersed in a hydroacetone solution at 20% by volume of acetone. […] After spraying, the plants were kept in a humidity-saturated environment at a temperature ranging from 18 to 24° C. for the incubation period of the fungus (1 day). At the end of this period, the plants were put in a greenhouse with a relative humidity (RH) of 70% and at a temperature of 18-24° C. for 14 days At the end of this period, the external symptoms of the pathogen appeared and it was therefore possible to proceed with the visual evaluation of the intensity of the infection, both on the parts treated directly with the products (T) and on the parts developed during the implementation of the test (NT).

Cercospora beticola = experiment: Antifungal activity in vitro (growth inhibition, 96-well absorbance); format: cell-based; conditions: 20° C., 72 hours (96 or 120 when necessary)
Alternaria alternata = format: cell-based; conditions: 20° C., 72 hours (96 or 120 when necessary)
Bipolaris sorokiniana = experiment: Antifungal activity in vitro (growth inhibition, 96-well absorbance); format: cell-based; conditions: 20° C., 72 hours (96 or 120 when necessary)
Venturia inaequalis = format: cell-based; conditions: for In vitro antifungal activity, 50% effective doses (EC50): Venturia inaequalis, 20° C., 72 hours (96 or 120 when necessary)

Compound: CCCCC(CC)COC(=O)[C@H](C)OC(=O)[C@H](C)NC(=O)c1cccc(NC=O)c1O (stereo partly shown) [Compound 239]
- In vitro antifungal activity, 50% effective doses (EC50) (Sclerotinia sclerotiorum): 0.081 µg/mL
- In vitro antifungal activity, 50% effective doses (EC50) (Parastagonospora nodorum): 0.006 µg/mL
- In vitro antifungal activity, 50% effective doses (EC50) (Zymoseptoria tritici): 0.067 µg/mL
- In vitro antifungal activity, 50% effective doses (EC50) (Magnaporthe oryzae): 0.64 µg/mL
- In vitro antifungal activity, 50% effective doses (EC50) (Phytophthora infestans): 1.62 µg/mL
- In vitro antifungal activity, 50% effective doses (EC50) (Pythium ultimum): 2.78 µg/mL

Compound: C[C@H](NC(=O)c1cccc(NC=O)c1O)C(=O)O[C@@H](C)C(=O)OCc1ccccc1 [Compound 248]
- In vitro antifungal activity, 50% effective doses (EC50) (Parastagonospora nodorum): 0.008 µg/mL
- In vitro antifungal activity, 50% effective doses (EC50) (Zymoseptoria tritici): 0.17 µg/mL
- In vitro antifungal activity, 50% effective doses (EC50) (Phytophthora infestans): 1.14 µg/mL

Compound: CC(C)C(=O)OCOc1c(NC=O)cccc1C(=O)N[C@@H](C)C(=O)O[C@@H](C)C(c1ccc(F)cc1)c1ccc(F)cc1 [Compound 156, (2S)-2-[3-formamide-2-(methoxy-(2-methyl)propanoate)-benzamide] of (2S)-1,1-bis(4-fluorophenyl)propan-2-yl]
- P5 Activity (Phakopsora pachyrhizi; 15 ppm): 100%
- P5 Activity (Phakopsora pachyrhizi; 30 ppm): 100%
- control of the pathogen (Phakopsora pachyrhizi): complete control
- P7Activity (Plasmopara viticola; 30 ppm): 100%
- P7Activity (Plasmopara viticola; 125 ppm): 100%
- P5 Activity NT (Puccinia Recondita; 125 ppm): 93%
- P5 Activity T (Puccinia Recondita; 125 ppm): 98%
- P5 Activity NT (Puccinia Recondita; 250 ppm): 100%
- P5 Activity T (Puccinia Recondita; 250 ppm): 100%

Compound: CCCCCCC[C@H](C)OC(=O)[C@H](C)NC(=O)c1cccc(NC=O)c1O [Compound 249]
- P5 Activity (Phakopsora pachyrhizi; 15 ppm): 98%
- P5 Activity (Phakopsora pachyrhizi; 30 ppm): 100%
- control of the pathogen (Phakopsora pachyrhizi): complete control
- P7Activity (Plasmopara viticola; 30 ppm): 100%
- P7Activity (Plasmopara viticola; 125 ppm): 100%
- P5 Activity NT (Puccinia Recondita; 125 ppm): 95%
- P5 Activity T (Puccinia Recondita; 125 ppm): 99%
- P5 Activity NT (Puccinia Recondita; 250 ppm): 100%
- P5 Activity T (Puccinia Recondita; 250 ppm): 100%

Compound: COc1ccnc(C(=O)N[C@@H](C)C(=O)O[C@@H](C)C(c2ccc(F)cc2)c2ccc(F)cc2)c1OC(C)=O [CR1, Florypicoxamid, reference compound]
- P5 Activity (Phakopsora pachyrhizi; 15 ppm): 100%
- P5 Activity (Phakopsora pachyrhizi; 30 ppm): 100%
- P7Activity (Plasmopara viticola; 30 ppm): 10%
- P7Activity (Plasmopara viticola; 125 ppm): 40%
- P5 Activity NT (Puccinia Recondita; 125 ppm): 90%
- P5 Activity T (Puccinia Recondita; 125 ppm): 99%
- P5 Activity NT (Puccinia Recondita; 250 ppm): 100%
- P5 Activity T (Puccinia Recondita; 250 ppm): 100%

Compound: C[C@H](NC(=O)c1ccccc1O)C(=O)O[C@@H](C)C(c1ccc(F)cc1)c1ccc(F)cc1 [CR2, reference compound]
- In vitro antifungal activity, 50% effective doses (EC50) (Sclerotinia sclerotiorum): 5.38 µg/mL
- In vitro antifungal activity, 50% effective doses (EC50) (Parastagonospora nodorum): 0.24 µg/mL
- In vitro antifungal activity, 50% effective doses (EC50) (Zymoseptoria tritici): 0.14 µg/mL
- In vitro antifungal activity, 50% effective doses (EC50) (Cercospora beticola): 0.48 µg/mL
- In vitro antifungal activity, 50% effective doses (EC50) (Alternaria alternata): 7.57 µg/mL
- In vitro antifungal activity, 50% effective doses (EC50) (Bipolaris sorokiniana): 3.6 µg/mL

Compound: C[C@H](NC(=O)c1cccc(NC=O)c1O)C(=O)O[C@@H](C)C(c1ccc(F)cc1)c1ccc(F)cc1 [Compound 165, (2S)-2-(3-formamide-salicylamide) propanoate of (2S)-1,1-bis(4-fluorophenyl) propan-2-yl]
- In vitro antifungal activity, 50% effective doses (EC50) (Sclerotinia sclerotiorum): 0.01 µg/mL
- In vitro antifungal activity, 50% effective doses (EC50) (Parastagonospora nodorum): 0.01 µg/mL
- In vitro antifungal activity, 50% effective doses (EC50) (Zymoseptoria tritici): 0.007 µg/mL
- P5 Activity (Phakopsora pachyrhizi; 15 ppm): 99%
- P5 Activity (Phakopsora pachyrhizi; 30 ppm): 100%
- control of the pathogen (Phakopsora pachyrhizi): complete control
- In vitro antifungal activity, 50% effective doses (EC50) (Cercospora beticola): 0.19 µg/mL
- In vitro antifungal activity, 50% effective doses (EC50) (Alternaria alternata): 0.33 µg/mL
- in vitro antifungal activity (in words) (Magnaporthe oryzae; M. oryzae): active
- In vitro antifungal activity, 50% effective doses (EC50) (Magnaporthe oryzae): 0.2 µg/mL
- in vitro antifungal activity (in words) (Venturia inaequalis; V. inaequalis): active
- In vitro antifungal activity, 50% effective doses (EC50) (Venturia inaequalis): 0.18 µg/mL
- in vitro antifungal activity (in words) (Phytophthora infestans; P. infestans): active
- In vitro antifungal activity, 50% effective doses (EC50) (Phytophthora infestans): 0.05 µg/mL
- In vitro antifungal activity, 50% effective doses (EC50) (Bipolaris sorokiniana): 0.11 µg/mL
- in vitro antifungal activity (in words) (Pythium ultimum; P. ultimum): active
- In vitro antifungal activity, 50% effective doses (EC50) (Pythium ultimum): 1.54 µg/mL
- P7Activity (Plasmopara viticola; 30 ppm): 100%
- P7Activity (Plasmopara viticola; 125 ppm): 100%
- P5 Activity NT (Puccinia Recondita; 125 ppm): 88%
- P5 Activity T (Puccinia Recondita; 125 ppm): 95%
- P5 Activity NT (Puccinia Recondita; 250 ppm): 100%
- P5 Activity T (Puccinia Recondita; 250 ppm): 100%

Compound: CCCCOC(=O)[C@H](C)OC(=O)[C@H](C)NC(=O)c1cccc(NC=O)c1O [Compound 236]
- In vitro antifungal activity, 50% effective doses (EC50) (Sclerotinia sclerotiorum): 0.18 µg/mL
- In vitro antifungal activity, 50% effective doses (EC50) (Parastagonospora nodorum): 0.009 µg/mL
- In vitro antifungal activity, 50% effective doses (EC50) (Zymoseptoria tritici): 0.095 µg/mL
- In vitro antifungal activity, 50% effective doses (EC50) (Cercospora beticola): 8.64 µg/mL
- In vitro antifungal activity, 50% effective doses (EC50) (Magnaporthe oryzae): 0.79 µg/mL
- In vitro antifungal activity, 50% effective doses (EC50) (Venturia inaequalis): 1.77 µg/mL
- In vitro antifungal activity, 50% effective doses (EC50) (Phytophthora infestans): 1.49 µg/mL
- In vitro antifungal activity, 50% effective doses (EC50) (Bipolaris sorokiniana): 8.0 µg/mL

Compound: CCCCCCCC(C)OC(=O)[C@H](C)NC(=O)c1cccc(NC=O)c1O (stereo partly drawn) [Compound 46, (2S)-2-(3-formamide-salicylamide)-propanoate of nonan-2-yl]
- In vitro antifungal activity, 50% effective doses (EC50) (Sclerotinia sclerotiorum): 0.02 µg/mL
- In vitro antifungal activity, 50% effective doses (EC50) (Parastagonospora nodorum): 0.001 µg/mL
- In vitro antifungal activity, 50% effective doses (EC50) (Zymoseptoria tritici): 0.02 µg/mL
- P5 Activity (Phakopsora pachyrhizi; 15 ppm): 98%
- P5 Activity (Phakopsora pachyrhizi; 30 ppm): 99%
- control of the pathogen (Phakopsora pachyrhizi): complete control
- In vitro antifungal activity, 50% effective doses (EC50) (Cercospora beticola): 1.34 µg/mL
- In vitro antifungal activity, 50% effective doses (EC50) (Venturia inaequalis): 0.25 µg/mL
- In vitro antifungal activity, 50% effective doses (EC50) (Phytophthora infestans): 0.04 µg/mL
- In vitro antifungal activity, 50% effective doses (EC50) (Bipolaris sorokiniana): 2.68 µg/mL
- P7Activity (Plasmopara viticola; 30 ppm): 100%
- P7Activity (Plasmopara viticola; 125 ppm): 100%
- P5 Activity NT (Puccinia Recondita; 125 ppm): 90%
- P5 Activity T (Puccinia Recondita; 125 ppm): 98%
- P5 Activity NT (Puccinia Recondita; 250 ppm): 99%
- P5 Activity T (Puccinia Recondita; 250 ppm): 100%
